Measured values published in US20050004177A1, “Combination of an allosteric inhibitor of matrix metalloproteinase-13 and a ligand to an alpha-2-delta receptor” (WARNER-LAMBERT COMPANY LLC, priority 2003, published 2005).

Work on O=C(O)c1ccc(Cn2nnc(-c3cccc(C#CCc4ccccc4)c3)n2)cc1 [Preparation 2, 4-{5-[3-(3-Phenyl-prop-1-ynyl)-phenyl]-tetrazol-2-ylmethyl}-benzoic acid] yielded a melting point of 195 to 198 °C.
